ChEMBL document CHEMBL1150079, “Oxygenated Clerosterols Isolated from the Marine Alga Codium arabicum” (1995)
≈ marks a conversion by molar mass, not a printed value.

Tests used:
Type in all cases: functional
[1] = test system: P388; assay: Cytotoxicity against mouse P388 cells after 3 days by MTT assay; settings: P388, 72 h, read-out: ED50 (the source's name)
[2] = test system: HT-29; assay: Cytotoxicity against human HT-29 cells after 6 days by MTT assay; settings: HT-29, 144 h, read-out: ED50 (the source's name)
[3] = test system: KB; assay: Cytotoxicity against human KB cells after 3 days by MTT assay; settings: 72 h, read-out: ED50 (the source's name)
[4] = test system: A549; assay: Cytotoxicity against human A549 cells after 6 days by MTT assay; settings: A549, 144 h, read-out: ED50 (the source's name)

Compound	EC50 [1] [µg/mL]	EC50 [2] [µg/mL]	EC50 [3] [µg/mL]	EC50 [4] [µg/mL]
C=C(C)[C@@H](CC)CC[C@@H](C)[C@H]1CC[C@H]2[C@@H]3[C@H](OO)C=C4C[C@@H](O)CC[C@]4(C)[C@H]3CC[C@]12C	0.4 (≈ 0.899 µM)	1 (≈ 2.25 µM)	1 (≈ 2.25 µM)	0.5 (≈ 1.12 µM)
C=C(C)[C@@H](CC)CC[C@@H](C)[C@H]1CC[C@H]2[C@@H]3[C@H](O)C=C4C[C@@H](O)CC[C@]4(C)[C@H]3CC[C@]12C	0.2 (≈ 0.467 µM)	0.6 (≈ 1.4 µM)	1.1 (≈ 2.57 µM)	0.5 (≈ 1.17 µM)
C=C(C)[C@@H](CC)CC[C@@H](C)[C@H]1CC[C@H]2[C@@H]3C=C[C@@]4(OO)C[C@@H](O)CC[C@]4(C)[C@H]3CC[C@]12C	0.5 (≈ 1.12 µM)	0.9 (≈ 2.02 µM)	1 (≈ 2.25 µM)	1.1 (≈ 2.47 µM)
C=C(C)[C@@H](CC)CC[C@@H](C)[C@H]1CC[C@H]2[C@@H]3CC=C4C[C@@H](O)CC[C@]4(C)[C@H]3CC[C@]12C [CLEROSTEROL]	1.7 (≈ 4.12 µM)	43.1 (≈ 104 µM)	> 50	0.3 (≈ 0.727 µM)
C=C(C)[C@@H](CC)CC[C@@H](C)[C@H]1CC[C@H]2[C@@H]3C(=O)C=C4C[C@@H](O)CC[C@]4(C)[C@H]3CC[C@]12C	0.8 (≈ 1.87 µM)	2 (≈ 4.69 µM)	1 (≈ 2.34 µM)	1.2 (≈ 2.81 µM)
C=C(C)[C@@H](CC)CC[C@@H](C)[C@H]1CC[C@H]2[C@@H]3C[C@@H](O)C4=CC(=O)CC[C@]4(C)[C@H]3CC[C@]12C	0.7 (≈ 1.64 µM)	0.3 (≈ 0.703 µM)	1.3 (≈ 3.05 µM)	2.1 (≈ 4.92 µM)
